A word on the IC50: it is the concentration needed to halve the response being measured.

In data set [1] the test system is C57BL/6 wild-type mice on high fat/high sucrose diabetogenic diet. In words: In-vivo evaluation in mice on high fat/high sucrose diabetogenic diet (Example 5). Also noted: species or system mouse. As to conditions: for fasting glucose levels: low dose 25 mg/kg/day. On the procedure: ILY-4001 (FIG. 2) was evaluated as a PLA2 IB inhibitor in a set of experiments using wild-type mice and genetically deficient PLA2 (−/−) mice (also referred to herein as PLA2 knock-out (KO) mice). In these experiments, wild-type and PLA2 (−/−) mice were maintained on a high fat/high sucrose diet, details of which are described below.
Briefly, four groups were set up, each having six mice. Three of the groups included six wild-type PLA2 (+/+) mice in each group (eighteen mice total), and one of the groups included six genetically deficient PLA2 (−/−) mice. One of the wild-type groups was used as a wild-type control group, and was not treated with ILY-4001. The other two wild-type groups were treated with ILY-4001—one group at a lower dose (indicated as “L” in Table 1) of 25 mg/kg/day, and the other at a higher dose (indicated as “H” in Table 1) of 90 mg/kg/day. The group comprising the PLA2 (−/−) mice was used as a positive control group.
The experimental protocol used in this study was as follows. The four groups of mice, including wild type and isogenic PLA2 (−/−) C57BL/J mice were acclimated for three days on a low fat/low carbohydrate diet. After the three day acclimation phase, the animals were fasted overnight and serum samples taken to establish baseline plasma cholesterol, triglyceride, and glucose levels, along with baseline body weight. The mice in each of the treatment groups were then fed a high fat/high sucrose diabetogenic diet (Research Diets D12331). 1000 g of the high fat/high sucrose D12331 diet was composed of casein (228 g), DL-methionine (2 g), maltodextrin 10 (170 g), sucrose (175 g), soybean oil (25 g), hydrogenated coconut oil (333.5 g), mineral mix S10001 (40 g), sodium bicarbonate (10.5 g), potassium citrate (4 g), vitamin mix V10001 (10 g), and choline bitartrate (2 g). This diet was supplemented with ILY-4001 treatments such that the average daily dose of the compound ingested by a 25 g mouse was: 0 mg/kg/day (wild-type control group and PLA2 (−/−) control group); 25 mg/kg/day (low-dose wild-type treatment group), or 90 mg/kg/day (high-dose wild-type treatment group). The animals were maintained on the high fat/high sucrose diet, with the designated ILY-4001 supplementation, for a period of ten weeks.
Body weight measurements were taken for all animals in all treatment and control groups at the beginning of the treatment period and at 4 weeks and 10 weeks after initiation of the study. (See Example 5A). Blood draws were also taken at the beginning of the treatment period (baseline) and at 4 weeks and 10 weeks after initiation of the study, in order to determine fasting glucose (See Example 5B). Cholesterol and triglyceride levels were determined from blood draws taken at the beginning of the treatment (baseline) and at ten weeks. (See Example 5C).

Data set [2] deals with mouse PLA2 IB enzyme (Mus musculus, UniProt Q9Z0Y2). As to conditions: pyrene substrate release from vesicles (Singer, Ghomashchi et al. 2002); read-out: IC50 versus the mouse PLA2 IB enzyme; cited from earlier work.
Data set [3] concerns the target human PLA2 IB enzyme (Homo sapiens, UniProt P04054). The conditions noted are these: pyrene substrate release from vesicles (Singer, Ghomashchi et al. 2002); read-out: IC50 versus the human PLA2 IB enzyme; cited from earlier work.
The nature of data set [4]: Stability at low pH. Type of data set: physicochemical.
In data set [5] the test system is Caco-2 cells. In words: In-vitro Caco-2 permeability study (Example 6B). As to conditions: Caco-2 monolayers, apical to basolateral. For orientation: Caco-2 monolayers are a common model of the intestinal barrier.
Method: (§1) Briefly, the human colon adenocarcinoma cell line, Caco-2, was used to model intestinal drug absorption.
(§2) In order to determine the compound permeability, Caco-2 cells (ATCC) were seeded into 24-well transwells (Costar) at a density of 6×10^4 cells/cm^2. Monolayers were grown and differentiated in MEM (Mediatech) supplemented with 20% FBS, 100 U/ml penicillin, and 100 ug/ml streptomycin at 37° C., 95% humidity, 95% air, and 5% CO2. The culture medium was refreshed every 48 hours. After 21 days, the cells were washed in transport buffer made up of HBSS with HEPES and the monolayer integrity was evaluated by measuring the trans-epithelial electrical resistance (TEER) of each well. […]
(§3) 150 ul samples were collected for LC/MS analysis from the basolateral well at 15 min, 30 min, 45 min, 1 hr, 3 hr, and 6 hr time points; replacing the volume with pre-warmed transport buffer after each sampling. The apparent permeabilities in cm/s were calculated based on the equation: Papp=(dQ/dt)×(1/C0)×(1/A) where dQ/dt is the permeability rate corrected for the sampling volumes over time, C0 is the initial concentration, and A is the surface area of the monolayer (0.32 cm^2). At the end of the experiment, TEER measurements were retaken and wells with readings below 350 ohm-cm^2 indicated diminished monolayer integrity such that the data from these wells were not valid for analysis.
A short description of data set [6]: Pharmokinetic study of ILY-4001 (Example 6C). As to conditions: 30 mg/kg oral. Type of data set: in vivo, mice. On the procedure:
Bioavailability was calculated as a ratio of AUC-oral/AUC-intravenous (IV). To determine this ratio, a first set of subject animals were given a measured intravenous (IV) dose of ILY-4001, followed by a determination of ILY-4001 levels in the blood at various time points after administration (e.g., 5 minutes through 24 hours). Another second set of animals was similarly dosed using oral administration, with blood levels of ILY-4001 determined at various time points after administration (e.g., 30 minutes through 24 hours). The level of ILY-4001 in systemic circulation were determined by generally accepted methods (for example as described in Evans, G., A Handbook of Bioanalysis and Drug Metabolism. Boca Raton, CRC Press (2004)). Specifically, […]/mass spectrometry/mass spectrometry (LC/MS/MS) analytical methods were used to quantitate plasma concentrations of ILY-4001 after oral and intravenous administration. Pharmacokinetic parameters that were measured include Cmax, AUC, tmax, t1/2, and F (bioavailability).
In this procedure, ILY-4001 was dosed at 3 mg/kg IV and 30 mg/kg oral. […] This indicated about a 72% level of non-absorption of ILY-4001 from the GI tract into systemic circulation.

A short description of data set [7]: Bioavailability study of Compound 5-24 (Example 9). Type of data set: in vivo, male CD-1 Mus Musculus mice. As to conditions: oral ˜30 mg/kg vs IV ˜3 mg/kg, mice. On the procedure: Bioavailability was determined for Compound 5-24 (ILY-V-24) as follows. Generally, the bioavailability was calculated by comparing a timecourse of the concentration of the test compound in the serum of mice after an intra-venous (IV) dosing, versus the timecourse of the concertration following an oral dosing of the test compound. The IV dose was ˜3 mg/kg, the oral dose was ˜30 mg/kg.
Oral Formulation. The oral formulation was prepared as follows. To sterile flask, 90 ml of sterile Milli-Q water was added. 9 ml of PEG-400 was added (final concentration of 9%). 50 ul of Tween-80 was added (final concentration of 0.05%). 0.9 g of CMC was weighed and added (final concentration of 0.9% w/v). […]
Study Design. […] On study day 0, all the animals were weighed, dosages were calculated and the animals were dosed by oral route (PO) or (IV) as outlined below in Table 7. […]
Calculations. Bioavailabilty was calculated as follows. Individual doses were calculated based on an average of body weights taken on the day of dosing. Serum concentrations of test compound, as well as the actual concentration of dosing solutions, were measured using 2-dimensional Mass Spectrophotometry after Liquid Chromatography (LC MS/MS). […]

The target of data set [8] is T1, mouse group 1B PLA2 (mps PLA2) (Mus musculus, UniProt Q9Z0Y2).
T1 construct: made in house; host or cells: E. coli
In words: Fluorimetric PLA2 inhibition assay, mouse (Example 8). Type of data set: biochemical. As to conditions: 15 μM compound.
From the text: (§4) In this example, a fluorimetric assay procedure was used to evaluate the indole and indole-related compounds of the invention as inhibitors of group 1B phospholipase A2 (PLA2) from human, mouse and porcine.
(§5) In general, this assay used a phosphatidylmethanol substrate with a pyrene fluorophore on the terminal end of the sn-2 fatty acyl chain. Without being bound by theory, close proximity of the pyrenes from neighboring phospholipids in a phospholipid vesicle caused the spectral properties to change relative to that of monomeric pyrene. Bovine serum albumin was present in the aqueous phase and captured the pyrene fatty acid when it is liberated from the glycerol backbone owing to the PLA2-catalyzed reaction. […] The effect of a given inhibitor and inhibitor concentration on human, mouse and porcine phospholipase was determined.
(§6) Recombinant human and mouse group 1B PLA2 were cloned and expressed in E. coli as insoluble inclusion bodies. The inclusion bodies were isolated and purified by sonicating cell pellet in lysis buffer (50 mM Tris-HCl pH 7.0, 250 mM NaCl, 0.5% Triton 100), centrifugation at 12,000×g, and washing three times in washing buffer (20 mM Tris-HCl pH 7.0, 250 mM NaCl, 0.5% Triton 100). Then the inclusion bodies were dissolved in dissolving buffer (50 mM Tris-HCl pH 7.0, 250 mM NaCl, 6 M Guanidine-HCl, 1 mM DTT) and dialyzed four times against 10 volumes of refolding buffer (20 mM Tris-HCl pH 7.0, 250 mM NaCl, 0.5M Guanidine-HCl, 5% (w/w) Glycerol, 2 mM reduced glutathione and 0.4 mM oxidized glutathione) at 4° C. The correctly refolded proteins were concentrated using Amicon Stirred cell under nitrogen pressure (<70 psi) and dialyzed against 10 volumes of 50 mM Tris-HCl pH 7.0, 250 mM NaCl and 5% (w/w) glycerol. Human and mouse group 1B PLA2 were further purified by High S ion exchange and gel filtration columns.
(§7) The following reagents were prepared: • 1. PPyrPM stock solution (1 mg/ml) in toluene:isopropanol (1:1) • 2. […]
(§8) The following procedure was performed to evaluate the inhibitory potency of the evaluated compounds. • 1. […]

In data set [9] the target is T2, human group 1B PLA2 (hps PLA2) (Homo sapiens, UniProt P04054).
T2 construct: made in house; host or cells: E. coli
As to the kind of experiment: Fluorimetric PLA2 inhibition assay, human (Example 8). Type of data set: biochemical. As to conditions: 15 μM compound.
From the text: as §4, §5, §6, §7, §8

Data set [10] deals with Porcine group 1 B phospholipase A2 (pps PLA2) (Sus scrofa, UniProt P00592). In words: Fluorimetric PLA2 inhibition assay, porcine (Example 8). The conditions noted are these: 15 μM compound.
From the text: as §4, §5
The following reagents and equipments were obtained from commercial vendors: • 1. Porcine group 1 B phospholipase A2 • 2. 1-hexadecanoyl-2-(1-pyrenedecanoyl)-sn-glycero-3-phosphomethanol (PPyrPM) • 3. Bovine serum albumin (BSA, fatty acid free) • 4. 2-Amino-2-(hydroxymethyl)-1,3-propanediol, hydrochloride (Tris-HCl) • 5. […]
as §8
Evaluated compounds were tested in duplicate and their values were averaged to plot the inhibition curve and calculate the IC50. […]
Data set [11] has as its system Caco-2 cells.
Method: as §1, §2, §3
The mark [12] stands for this setting: low and high doses (25 and 90 mg/kg/day), 10 weeks.

Read-outs that look alike come from different tables or passages of the source.

T2 sequence (P04054 23-148): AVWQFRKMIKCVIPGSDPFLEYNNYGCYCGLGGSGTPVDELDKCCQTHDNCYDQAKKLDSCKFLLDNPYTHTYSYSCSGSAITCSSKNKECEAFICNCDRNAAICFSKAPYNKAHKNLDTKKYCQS
human PLA2 IB enzyme, sequence (P04054 23-148): as above
Porcine group 1 B phospholipase A2 (pps PLA2), sequence (P00592 23-146): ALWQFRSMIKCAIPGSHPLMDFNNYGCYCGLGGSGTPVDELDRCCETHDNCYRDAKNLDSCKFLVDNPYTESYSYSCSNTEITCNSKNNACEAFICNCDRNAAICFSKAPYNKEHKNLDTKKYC
mouse PLA2 IB enzyme, sequence (Q9Z0Y2 23-146): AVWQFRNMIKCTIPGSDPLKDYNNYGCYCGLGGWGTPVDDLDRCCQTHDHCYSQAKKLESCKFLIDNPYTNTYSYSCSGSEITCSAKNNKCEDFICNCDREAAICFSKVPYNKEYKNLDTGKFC
T1 sequence (Q9Z0Y2 23-146): as above

With `Cc1c(C(=O)C(N)=O)c2c(OCC(=O)O)cccc2n1Cc1ccccc1-c1ccccc1` [ILY-4001, 2-(3-(2-amino-2-oxoacetyl)-1-(biphenyl-2-ylmethyl)-2-methyl-1H-indol-4-yloxy)acetic acid], the body weight gain entry in data set [1] (25 mg/kg/d and 90 mg/kg/d in diet, week 4 and week 10, vs wild-type control group) is given as “significantly reduced body weight gains”. The “plasma levels of cholesterol” value in data set [1] (setting [12]) is given as “substantially reduced”. Further, in data set [1] (setting [12]), the “plasma levels of triglycerides” value was “substantially reduced”. Further, the fasting glucose levels entry in data set [1] (week four) is reported as “moderately beneficial effect”; in data set [1] (week ten) it was “a beneficial effect was not observed”. The IC50 in data set [2] was around 150 nM; in [3], around 200 nM. Besides, the “stability at low pH” value in [4] is reported as “stable at low pH”. The “apparent permeability (cm/s)” value in data set [5] is “around 1.66×10^−7 cm/s”. Moreover, the “level of non-absorption from the GI tract into systemic circulation” value in data set [6] is listed as around 72%.

With `Cc1c(C(=O)C(N)=O)c2c(OCC(=O)O)cccc2n1CCCCCCCCSCCCCCCCCSCCCCCCCCn1c(C)c(C(=O)C(N)=O)c2c(OCC(=O)O)cccc21` [ILY-v-24, 2,2′-(1,1′-(8,8′-(Octane-1,8-diylbis(sulfanediyl))bis(octane-8,1-diyl))bis(3-(2-amino-2-oxoacetyl)-2-methyl-1H-indole-4,1-diyl))bis(oxy)diacetic acid], in [7], the bioavailability is 4-8%.

In the case of “(3-Aminooxalyl-1-benzyl-2-methyl-1H-indol-4-yloxy)-phenyl-acetic acid [ILY-IV-32]”, the “ILYPSA % inhibition at 15 μM mps PLA2” value in data set [8] was found to be 47.49%. In addition, the “ILYPSA % inhibition at 15 μM hps PLA2” value in data set [9] is 41.73%. For the same compound, the “ILYPSA % inhibition at 15 μM pps PLA2” value in [10] came out at 38.5%.

In the case of Lucifer Yellow, the “apparent permeability (cm/s)” value in [11] was “around 2.82×10^−7+/−0.37×10^−7 cm/s”.
